pIC50: −log10 of the molar value.
Molecular target: T1, HMG-CoA synthase (Rattus norvegicus, UniProt P17425)
T1 construct: The HMG-CoA synthase was eluted from the column with 0.1 M phosphate buffer (pH 7.2); from tissue; host or cells: liver of male Charles River CD rats
T1 sequence (P17425 1-520): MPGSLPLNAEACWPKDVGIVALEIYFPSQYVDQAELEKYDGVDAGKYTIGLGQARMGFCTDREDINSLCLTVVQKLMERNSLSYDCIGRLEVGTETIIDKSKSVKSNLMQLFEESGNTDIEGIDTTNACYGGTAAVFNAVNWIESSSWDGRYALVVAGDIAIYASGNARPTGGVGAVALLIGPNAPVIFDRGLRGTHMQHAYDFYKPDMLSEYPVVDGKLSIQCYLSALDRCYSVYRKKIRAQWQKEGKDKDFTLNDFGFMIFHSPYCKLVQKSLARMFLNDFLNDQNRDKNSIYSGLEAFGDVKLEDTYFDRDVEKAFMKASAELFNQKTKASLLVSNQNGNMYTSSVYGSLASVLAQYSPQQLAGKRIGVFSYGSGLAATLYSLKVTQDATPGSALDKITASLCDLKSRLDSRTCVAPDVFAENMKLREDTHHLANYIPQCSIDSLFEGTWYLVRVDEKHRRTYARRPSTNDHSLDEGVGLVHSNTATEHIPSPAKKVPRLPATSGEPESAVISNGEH
Test: HMG-CoA Synthase Inhibition Assay
Type: biochemical
Settings: in vitro; HMG-CoA synthase purified from rat liver; 5 min preincubation with test compound at 30°, then 10 min with acetoacetyl-CoA and [14C]-acetyl-CoA
Method: The intrinsic HMG-CoA synthase inhibition activity of the compounds of this invention is measured by the standard in vitro protocol described below:
The livers from male Charles River CD rats (225-350 g) were homogenized in 0.25 M sucrose which was adjusted with phenylmethylsulfonylfluoride (PMSF) and N-p-tosyl-1-lysine chloromethyl ketone (TLCK) so that the final concentration of each was […], respectively. The homogenate was centrifuged at 15,000× g for 20 minutes, the supernatant filtered through a fine nylon screen to remove most of the fat layer and recentrifuged at 100,000× g for 1 hour. This supernatant was removed and 1 M potassium phosphate, dithiothreitol (DTT) and ethylene glycol-bis(β-aminoethyl ether)-N,N,N',N'-tetracetic acid (EGTA) added to give a final concentration of 0.1 M (pH 7.2), 0.5 mM and 0.1 mM, respectively. Solid ammonium sulfate was added to 50% saturation to the protein solution, it was centrifuged at 15,000× g and the supernatant discarded. This precipitated protein could be stored at -70° C. for at least one month with very little loss of activity. The ammonium sulfate precipitate was dissolved in an minimal mount of 0.06 M potassium phosphate buffer (pH 7.2) containing 0.5 mM dithiothreitol and 0.1 mM EGTA (referred to as 0.06 M phosphate buffer) and dialyzed overnight against 2 liters of the same buffer to remove the ammonium sulfate and to inactivate HMG-CoA lyase [Clinkenbeard, et al., J. Biol. Chem. 250, 3108-3116(1975)].
The dialyzed extract was added to a column of DEAE-52 (Whatman) which had been equilibrated with 0.06 M phosphate buffer (10 mg of protein to 1 ml bed volume of the resin). The DEAE-cellulose was eluted with 0.06 M phosphate buffer until the optical density at 280 nm was essentially zero. This fraction contained the β-ketoacetyl-CoA thiolase activity. The HMG-CoA synthase was eluted from the column with 0.1 M phosphate buffer (pH 7.2) containing 0.5 mM DTT and 0.1 mM EGTA, and was virtually free of all thiolase activity. The protein was precipitated by the addition of ammonium sulfate to give 50% saturation. This solution was stirred for 10 minutes at 4° C. and the precipitate collected by centrifugation at 15,000 rpm for 10 minutes. The supernatant was discarded and the precipitate dissolved in a minimum of 0.06 M phosphate buffer, pH 7.2 (about 10 ml) and the enzyme stored at -80° C.
Enzyme protein (ca. 24 mg) was added to a solution containing […] (pH 8.0), 11.7 μM MgCl2, 1.17 μM Ethylenediaminetetraacetic acid (EDTA), 0.58 μM dithiothreitol, and the indicated concentrations of the test compound (added as a 2 mg/ml solution in dimethylsulfoxide). The incubation took place in a volume of 0.085 ml at 30° in a shaking water bath. After 5 minutes, […] of a solution containing acetoacetyl-CoA and 0.1 μCi of 1-[^14 C]-acetyl-CoA was added to give a final concentrations of 0.1 and 0.4 μM, respectively. The incubation was continued for 10 more minutes and the reaction stopped by the addition of […] of the assay mixture to 0.2 ml of 6N HCl in a glass scintillation vial. The vial was heated for 1 hour at 120° after which time 0.2 ml more of 6N HCl was again added to each vial and the heating continued for another hour. Following this, 1.0 ml of 0.9% saline was added to each vial and finally 10 ml of scintillation liquid. Radioactivity was determined in a Packard Tri-Carb liquid scintillation counter.
Percent inhibition is calculated by the formula: [formula]
IC50 values were determined by plotting the log of the concentration of the test compound verses the percentage inhibition and fitting a straight line to the resulting data by using the least squares method.

Row | pIC50 | Structure (SMILES)
1 | 6.60 | CCCCCCCCCC[C@@H]1OC(=O)[C@H]1C (relative stereo) [(CH2)9CH3, E-3-Methyl-4-decyl-2-oxetanone]
2 | 5.80 | CC(=O)CC(C)CCCCC1OC(=O)C1CO (stereo not shown) [8-(3-hydroxymethyl-4-oxo-2-oxetanyl)-4-methyl-2-octanone]
3 | 5.26 | COCC1C(=O)OC1CCCCC(C)CC(C)OC (stereo not shown) [8-(3-methoxymethyl-4-oxo-2-oxetanyl)-4-methyl-2-methoxyoctane]
4 | 5.96 | COC(=O)C=C(C)C(O)C(C)(O)CC(C)CCCCC1OC(=O)C1CO (stereo not shown) [methyl 11-(3-hydroxymethyl-4-oxo-2-oxetanyl)-4,5-dihydroxy-3,5,7-trimethyl-2-undecenoate]

More lines, now with the values behind:

Row | Structure (SMILES) | pIC50
5 | C[C@H]1C(=O)O[C@@H]1CCCCCc1ccccc1 (relative stereo) [(CH2)5Ph, E-3-Methyl-4-(5-phenylpentyl)-2-oxetanone] | 5.85
6 | C[C@H]1C(=O)O[C@@H]1CCCCCCc1ccccc1 (relative stereo) [(CH2)6 Ph, E-3-Methyl-4-(6-phenylhexyl)-2-oxetanone] | 5.82
7 | C=CCCCCCCCC[C@@H]1OC(=O)[C@H]1C (relative stereo) [(CH2)8 CHCH2, E-3-Methyl-4-(9-decenyl)-2-oxetanone] | 5.80
8 | C[C@H]1C(=O)O[C@@H]1CCCCCCCCCc1ccccc1 (relative stereo) [(CH2)9 Ph, E-3-methyl-4-(9-phenylnonyl)-2-oxetanone] | 5.92
9 | CC(CC(C)CCCCC1OC(=O)C1CO)=NNc1ccc(Br)cc1 (stereo not shown) [8-(3-hydroxymethyl-4-oxo-2-oxetanyl)-4-methyl-2-(4-bromophenylhydrazono)-octane] | 6.10
10 | COCC1C(=O)OC1CCCCC(C)CC(C)=O (stereo not shown) [8-(3-methoxymethyl-4-oxo-2-oxetanyl)-4-methyl-2-octanone] | 5.77
11 | CC(=CC(=O)O)C1OC1(C)CC(C)CCCCC1OC(=O)C1CO (stereo not shown) [11-(3-hydroxymethyl-4-oxo-2-oxetanyl)-4,5-oxiranyl-3,5,7-trimethyl-2-undecenoic acid] | 7.00
12 | COC(=O)C=C(C)C1OC1(C)CC(C)CCCCC1OC(=O)C1CO (stereo not shown) [methyl 11-(3-hydroxymethyl-4-oxo-2-oxetanyl)-4,5-oxiranyl-3,5,7-trimethyl-2-undecenoate] | 7.10
13 | COCC1C(=O)OC1CCCCC(C)CC(C)(O)C(O)C(C)=CC(=O)OC (stereo not shown) [methyl 11-(3-methoxymethyl-4-oxo-2-oxetanyl)-4,5-dihydroxy-3,5,7-trimethyl-2-undecenoate] | 5.72
